Measured values as given in patent publication US6936270B2, “Device and method for treating conditions of a joint” (Control Delivery Systems, Inc., priority 2000, dated 2005).
Where two headings read alike, the source gives them in different places.

Tests used:
[1] = Fluocinolone acetonide concentration in dog synovial fluid after intraarticular implants in knee joints; assay type: in vivo, Canis familiaris; settings: for concentration at 3 day / concentration at 7 day / concentration at 21 day / concentration at 29 day / concentration at 56 day: dog, other: bilateral intraarticular implants (knee joints)
Protocol: Devices were administered once via bilateral intraarticular implants. The day of surgical implantation was Day 1. The devices were made as follows. Fluocinolone acetonide, USP, was compressed into 1.5 mm diameter tablets using standard pharmaceutical methods. The tablets were placed into preformed cups made from silicone elastomer. Cup size was dependent on dosage form. These cups were attached to […] (PVA) suture tabs. For the 2 mg implants, the surface of the tablet not coated with silicone was attached to a suture tab with PVA solution. For the […] implant, a side of the silicone cup was attached perpendicular to the suture tab. Finally, the assemblies were dip coated with PVA. The implants were then cured at 135° C. for 5 hours and placed within the primary package. The product in the primary package was placed in a self-adhesive pouch and sterilized using gamma irradiation. Surgery was performed on both knee joints of all animals. A lateral skin incision was made to expose the fascia lata overlying the vastus lateralis cranially and the biceps fernoris caudally. The joint was exposed through an incision in the lateral intermuscular septum to expose the femur by anterior retraction of the vastus lateralis and posterior retraction of the biceps femoris. Care was taken not to disrupt the tendon of origin of the long digital extensor as it originates from the lateral femoral condyle. The joint capsule was opened, the patella luxated medially, and the joint was held in full flexion. 2 mg devices were placed in the right leg and 18 mg implants were placed in the left leg. The implants were placed within the anterior intercondyloid fossa, immediately lateral to the origin of the posterior cruciate ligament. The bone may be slightly deepened at this location with a curette to accept the implant. The implant was sutured in place to the posterior cruciate ligament. The joint capsule was closed with 3/0 PDS in a simple interrupted fashion. The retinaculum and intermuscular septum were closed with 2/0 Vicryl in a continuous pattern. The fascia lata were closed with 2/0 PDS, and the subcutaneous tissues with 3/0 PDS, both in a simple continuous pattern. The skin was closed with 3/0 Vicryl in a subcuticular pattern. After anesthesia (acepromazine, 0.2 mg/kg. IM followed by sodium pentobarbital, 22 mg/kg, IV, to effect), an attempt was made to obtain synovial fluid. Syriovial fluid samples were immediately stored at ≦−70° C. in polypropylene tubes until transferred.

[2] = Plasma concentration of fluocinolone acetonide after FA screw implant in the stifle joint of sheep; assay type: in vivo, Ovis aries (Sheep); settings: intra-articular FA screw implants in the stifle joint, FIG. 1
Text: (§1) The objective of this study was to determine both the local and systemic pharmacokinetic profile of an intra-articular fluocinolone acetonide (FA screw) implant in the stifle joint of sheep. The animals underwent surgical implantation of the FA Screw test device in the stifle joint on Day 1. Following a recovery period, blood and synovial fluid were collected periodically for pharmacokinetic determination. Following completion of a 24 month observation period, the animals were euthanized and subjected to necropsy.
(§2) Devices were administered once via surgical implantation on Day 1.
(§3) The implant was a polymer-coated, sustained-release delivery system for Fluocinolone Acetonide (FA). The implant contained 55 mg of FA and was designed to deliver the drug for approximately 3 years. The tablet core contained approximately 55 mg of FA granulated with 10% PVA. The tablet core was positioned and adhered via an adhesive, such as a silicone adhesive, in the interchangeable head of the bone screw. The overall device geometry was that of a cancellous bone screw (i.e. the base) in which the head of the screw has been hollowed out to accept a removable cup (i.e. the payload) containing the drug tablet. In this embodiment, the screw was approximately 11/16″ in length and is no more than ¼″ at its widest point (i.e. the screw head), The payload was sized to fit into the screw and to accommodate the tablet. […]

[3] = Synovial fluid concentration of fluocinolone acetonide after FA screw implant in the stifle joint of sheep; assay type: in vivo, Ovis aries (Sheep); settings: at three and eight weeks, FIG. 1
Text: as §1, §2, §3

**Q.** What does the source list for `CC1(C)O[C@@H]2C[C@H]3[C@@H]4C[C@H](F)C5=CC(=O)C=C[C@]5(C)[C@@]4(F)[C@@H](O)C[C@]3(C)[C@]2(C(=O)CO)O1` [Fluocinolone Acetonide]?
**A.** Assayed Concentrations of Fluocinolone Acetonide in Dog Synovial Fluid Samples (Right Leg) ([1]; Right leg (2 mg devices), Dog 1001, Day 21): 7.27 ng/mL; Assayed Concentrations of Fluocinolone Acetonide in Dog Synovial Fluid Samples (Right Leg) ([1]; Right leg (2 mg devices), Dog 2001, Day 7): 98.4 ng/mL; Assayed Concentrations of Fluocinolone Acetonide in Dog Synovial Fluid Samples (Right Leg) ([1]; Right leg (2 mg devices), Dog 2002, Day 7): 47.7 ng/mL; Assayed Concentrations of Fluocinolone Acetonide in Dog Synovial Fluid Samples (Right Leg) ([1]; Right leg (2 mg devices), Dog 2002, Day 21): 144 ng/mL; Assayed Concentrations of Fluocinolone Acetonide in Dog Synovial Fluid Samples (Right Leg) ([1]; Right leg (2 mg devices), Dog 3001, Day 7): 171 ng/mL; Assayed Concentrations of Fluocinolone Acetonide in Dog Synovial Fluid Samples (Right Leg) ([1]; Right leg (2 mg devices), Dog 3001, Day 21): 51.5 ng/mL; Assayed Concentrations of Fluocinolone Acetonide in Dog Synovial Fluid Samples (Right Leg) ([1]; Right leg (2 mg devices), Dog 3002, Day 7): 8.30 ng/mL; concentration at 3 day ([1]; synovial fluid (left knee joint), 18 mg, Left leg (18 mg implants), Dog 1001, Day 3, read-out: Assayed Concentrations of Fluocinolone Acetonide in Dog Synovial Fluid Samples (Left Leg)): 656 ng/mL; concentration at 7 day ([1]; synovial fluid (left knee joint), 18 mg, Left leg (18 mg implants), Dog 1001, Day 7, read-out: Assayed Concentrations of Fluocinolone Acetonide in Dog Synovial Fluid Samples (Left Leg)): 290 ng/mL; concentration at 21 day ([1]; synovial fluid (left knee joint), 18 mg, Left leg (18 mg implants), Dog 1001, Day 21, read-out: Assayed Concentrations of Fluocinolone Acetonide in Dog Synovial Fluid Samples (Left Leg)): 1070 ng/mL; concentration at 29 day ([1]; synovial fluid (left knee joint), 18 mg, Left leg (18 mg implants), Dog 1001, Day 29, read-out: Assayed Concentrations of Fluocinolone Acetonide in Dog Synovial Fluid Samples (Left Leg)): 457 ng/mL; concentration at 56 day ([1]; synovial fluid (left knee joint), 18 mg, Left leg (18 mg implants), Dog 1001, Day 56, read-out: Assayed Concentrations of Fluocinolone Acetonide in Dog Synovial Fluid Samples (Left Leg)): 202000 ng/mL; concentration at 3 day ([1]; synovial fluid (left knee joint), 18 mg, Left leg (18 mg implants), Dog 1002, Day 3, read-out: Assayed Concentrations of Fluocinolone Acetonide in Dog Synovial Fluid Samples (Left Leg)): 357 ng/mL; concentration at 7 day ([1]; synovial fluid (left knee joint), 18 mg, Left leg (18 mg implants), Dog 1002, Day 7, read-out: Assayed Concentrations of Fluocinolone Acetonide in Dog Synovial Fluid Samples (Left Leg)): 405 ng/mL; concentration at 21 day ([1]; synovial fluid (left knee joint), 18 mg, Left leg (18 mg implants), Dog 1002, Day 21, read-out: Assayed Concentrations of Fluocinolone Acetonide in Dog Synovial Fluid Samples (Left Leg)): 373 ng/mL; concentration at 29 day ([1]; synovial fluid (left knee joint), 18 mg, Left leg (18 mg implants), Dog 1002, Day 29, read-out: Assayed Concentrations of Fluocinolone Acetonide in Dog Synovial Fluid Samples (Left Leg)): 379 ng/mL; concentration at 56 day ([1]; synovial fluid (left knee joint), 18 mg, Left leg (18 mg implants), Dog 1002, Day 56, read-out: Assayed Concentrations of Fluocinolone Acetonide in Dog Synovial Fluid Samples (Left Leg)): 541 ng/mL; concentration at 3 day ([1]; synovial fluid (left knee joint), 18 mg, Left leg (18 mg implants), Dog 2001, Day 3, read-out: Assayed Concentrations of Fluocinolone Acetonide in Dog Synovial Fluid Samples (Left Leg)): 89 ng/mL; concentration at 7 day ([1]; synovial fluid (left knee joint), 18 mg, Left leg (18 mg implants), Dog 2001, Day 7, read-out: Assayed Concentrations of Fluocinolone Acetonide in Dog Synovial Fluid Samples (Left Leg)): 194 ng/mL; concentration at 29 day ([1]; synovial fluid (left knee joint), 18 mg, Left leg (18 mg implants), Dog 2001, Day 29, read-out: Assayed Concentrations of Fluocinolone Acetonide in Dog Synovial Fluid Samples (Left Leg)): 57.8 ng/mL; concentration at 3 day ([1]; synovial fluid (left knee joint), 18 mg, Left leg (18 mg implants), Dog 2002, Day 3, read-out: Assayed Concentrations of Fluocinolone Acetonide in Dog Synovial Fluid Samples (Left Leg)): 193 ng/mL; concentration at 7 day ([1]; synovial fluid (left knee joint), 18 mg, Left leg (18 mg implants), Dog 2002, Day 7, read-out: Assayed Concentrations of Fluocinolone Acetonide in Dog Synovial Fluid Samples (Left Leg)): 279 ng/mL; concentration at 21 day ([1]; synovial fluid (left knee joint), 18 mg, Left leg (18 mg implants), Dog 2002, Day 21, read-out: Assayed Concentrations of Fluocinolone Acetonide in Dog Synovial Fluid Samples (Left Leg)): 393 ng/mL; concentration at 29 day ([1]; synovial fluid (left knee joint), 18 mg, Left leg (18 mg implants), Dog 2002, Day 29, read-out: Assayed Concentrations of Fluocinolone Acetonide in Dog Synovial Fluid Samples (Left Leg)): 956 ng/mL; concentration at 3 day ([1]; synovial fluid (left knee joint), 18 mg, Left leg (18 mg implants), Dog 3001, Day 3, read-out: Assayed Concentrations of Fluocinolone Acetonide in Dog Synovial Fluid Samples (Left Leg)): 788 ng/mL; concentration at 7 day ([1]; synovial fluid (left knee joint), 18 mg, Left leg (18 mg implants), Dog 3001, Day 7, read-out: Assayed Concentrations of Fluocinolone Acetonide in Dog Synovial Fluid Samples (Left Leg)): 35300 ng/mL; concentration at 21 day ([1]; synovial fluid (left knee joint), 18 mg, Left leg (18 mg implants), Dog 3001, Day 21, read-out: Assayed Concentrations of Fluocinolone Acetonide in Dog Synovial Fluid Samples (Left Leg)): 5180 ng/mL; concentration at 56 day ([1]; synovial fluid (left knee joint), 18 mg, Left leg (18 mg implants), Dog 3001, Day 56, read-out: Assayed Concentrations of Fluocinolone Acetonide in Dog Synovial Fluid Samples (Left Leg)): 36.9 ng/mL; concentration at 3 day ([1]; synovial fluid (left knee joint), 18 mg, Left leg (18 mg implants), Dog 3002, Day 3, read-out: Assayed Concentrations of Fluocinolone Acetonide in Dog Synovial Fluid Samples (Left Leg)): 207 ng/mL; concentration at 7 day ([1]; synovial fluid (left knee joint), 18 mg, Left leg (18 mg implants), Dog 3002, Day 7, read-out: Assayed Concentrations of Fluocinolone Acetonide in Dog Synovial Fluid Samples (Left Leg)): 251 ng/mL; concentration at 21 day ([1]; synovial fluid (left knee joint), 18 mg, Left leg (18 mg implants), Dog 3002, Day 21, read-out: Assayed Concentrations of Fluocinolone Acetonide in Dog Synovial Fluid Samples (Left Leg)): 276 ng/mL; concentration at 29 day ([1]; synovial fluid (left knee joint), 18 mg, Left leg (18 mg implants), Dog 3002, Day 29, read-out: Assayed Concentrations of Fluocinolone Acetonide in Dog Synovial Fluid Samples (Left Leg)): 210 ng/mL; concentration at 3 day ([1]; synovial fluid (right knee joint), 2 mg, Right leg (2 mg devices), Dog 1001, Day 3, read-out: Assayed Concentrations of Fluocinolone Acetonide in Dog Synovial Fluid Samples (Right Leg)): 52 ng/mL; concentration at 7 day ([1]; synovial fluid (right knee joint), 2 mg, Right leg (2 mg devices), Dog 1001, Day 7, read-out: Assayed Concentrations of Fluocinolone Acetonide in Dog Synovial Fluid Samples (Right Leg)): 62.4 ng/mL; concentration at 56 day ([1]; synovial fluid (right knee joint), 2 mg, Right leg (2 mg devices), Dog 1001, Day 56, read-out: Assayed Concentrations of Fluocinolone Acetonide in Dog Synovial Fluid Samples (Right Leg)): 19.3 ng/mL; concentration at 3 day ([1]; synovial fluid (right knee joint), 2 mg, Right leg (2 mg devices), Dog 1002, Day 3, read-out: Assayed Concentrations of Fluocinolone Acetonide in Dog Synovial Fluid Samples (Right Leg)): 36.6 ng/mL; concentration at 3 day ([1]; synovial fluid (right knee joint), 2 mg, Right leg (2 mg devices), Dog 2001, Day 3, read-out: Assayed Concentrations of Fluocinolone Acetonide in Dog Synovial Fluid Samples (Right Leg)): 600 ng/mL; concentration at 3 day ([1]; synovial fluid (right knee joint), 2 mg, Right leg (2 mg devices), Dog 2002, Day 3, read-out: Assayed Concentrations of Fluocinolone Acetonide in Dog Synovial Fluid Samples (Right Leg)): 24.4 ng/mL; concentration at 3 day ([1]; synovial fluid (right knee joint), 2 mg, Right leg (2 mg devices), Dog 3001, Day 3, read-out: Assayed Concentrations of Fluocinolone Acetonide in Dog Synovial Fluid Samples (Right Leg)): 57.9 ng/mL; concentration at 29 day ([1]; synovial fluid (right knee joint), 2 mg, Right leg (2 mg devices), Dog 3001, Day 29, read-out: Assayed Concentrations of Fluocinolone Acetonide in Dog Synovial Fluid Samples (Right Leg)): 16.4 ng/mL; concentration at 3 day ([1]; synovial fluid (right knee joint), 2 mg, Right leg (2 mg devices), Dog 3002, Day 3, read-out: Assayed Concentrations of Fluocinolone Acetonide in Dog Synovial Fluid Samples (Right Leg)): 40.7 ng/mL; concentration at 29 day ([1]; synovial fluid (right knee joint), 2 mg, Right leg (2 mg devices), Dog 3002, Day 29, read-out: Assayed Concentrations of Fluocinolone Acetonide in Dog Synovial Fluid Samples (Right Leg)): 7.86 ng/mL; Plasma levels [2]: 0 to 0.35 ng/mL; increase in FA concentrations in the synovial fluid [3]: three-fold increase
